Experimental data reported in the NIST ThermoML archive (doi:10.1016/j.jct.2010.08.019).

Assay: refractive index (Na D-line) (dimensionless); xn = mol fraction of the nth substance listed
Details: 101 kPa, Liquid, Standard Abbe refractometry

CC(C)CC(C)(C)C [2,2,4-trimethylpentane] + CC(C)O
Details | refractive index
293.15 K, x2 = 0.2501 | 1.41104
293.15 K, x2 = 0.3003 | 1.40906
293.15 K, x2 = 0.3502 | 1.40701
293.15 K, x2 = 0.4004 | 1.40497
293.15 K, x2 = 0.4502 | 1.4029
293.15 K, x2 = 0.5001 | 1.40079
293.15 K, x2 = 0.55 | 1.39865
293.15 K, x2 = 0.5998 | 1.39647
293.15 K, x2 = 0.6502 | 1.39422
293.15 K, x2 = 0.7002 | 1.39194
293.15 K, x2 = 0.7499 | 1.38965
293.15 K, x2 = 0.7999 | 1.38727
293.15 K, x2 = 0.85 | 1.38486
293.15 K, x2 = 0.8999 | 1.38241
293.15 K, x2 = 0.95 | 1.37993
303.15 K, x2 = 0 | 1.41599
303.15 K, x2 = 0.05 | 1.41398
303.15 K, x2 = 0.1 | 1.41198
303.15 K, x2 = 0.1499 | 1.41
303.15 K, x2 = 0.2004 | 1.408
303.15 K, x2 = 0.2497 | 1.40602
303.15 K, x2 = 0.3 | 1.40405
303.15 K, x2 = 0.3499 | 1.40202
303.15 K, x2 = 0.4008 | 1.40001
303.15 K, x2 = 0.4503 | 1.39797
303.15 K, x2 = 0.5 | 1.3959
303.15 K, x2 = 0.5498 | 1.3938
303.15 K, x2 = 0.6001 | 1.39166
303.15 K, x2 = 0.65 | 1.38947
303.15 K, x2 = 0.7001 | 1.38724
303.15 K, x2 = 0.7495 | 1.38498
303.15 K, x2 = 0.7989 | 1.38267
303.15 K, x2 = 0.8499 | 1.3803
303.15 K, x2 = 0.8997 | 1.37788
303.15 K, x2 = 0.95 | 1.37545
313.15 K, x2 = 0 | 1.41092
313.15 K, x2 = 0.0499 | 1.40889
313.15 K, x2 = 0.1001 | 1.40693
313.15 K, x2 = 0.1503 | 1.40494
313.15 K, x2 = 0.2001 | 1.40299
313.15 K, x2 = 0.2499 | 1.40102
313.15 K, x2 = 0.3003 | 1.39906
313.15 K, x2 = 0.3497 | 1.39707
313.15 K, x2 = 0.4 | 1.39507
313.15 K, x2 = 0.4502 | 1.39301
313.15 K, x2 = 0.5005 | 1.39098
313.15 K, x2 = 0.5499 | 1.38891
313.15 K, x2 = 0.6 | 1.38681
313.15 K, x2 = 0.6498 | 1.38469
313.15 K, x2 = 0.6999 | 1.38251
313.15 K, x2 = 0.75 | 1.38031
313.15 K, x2 = 0.7998 | 1.37808
313.15 K, x2 = 0.8498 | 1.37578
313.15 K, x2 = 0.8999 | 1.37345
313.15 K, x2 = 0.9499 | 1.37107
323.15 K, x2 = 0 | 1.40554
323.15 K, x2 = 0.0501 | 1.40351
323.15 K, x2 = 0.1 | 1.40154
323.15 K, x2 = 0.15 | 1.39952
323.15 K, x2 = 0.1998 | 1.39757
323.15 K, x2 = 0.25 | 1.39566
323.15 K, x2 = 0.3 | 1.39368
323.15 K, x2 = 0.35 | 1.39173
323.15 K, x2 = 0.4 | 1.38974
323.15 K, x2 = 0.4499 | 1.38775
323.15 K, x2 = 0.5 | 1.38572
323.15 K, x2 = 0.5501 | 1.38366
323.15 K, x2 = 0.6 | 1.38161
323.15 K, x2 = 0.65 | 1.37953
323.15 K, x2 = 0.7 | 1.37741
323.15 K, x2 = 0.7499 | 1.37522
323.15 K, x2 = 0.7999 | 1.37303
323.15 K, x2 = 0.85 | 1.3708
323.15 K, x2 = 0.9 | 1.36851
323.15 K, x2 = 0.95 | 1.36617

C1CCOCC1 [tetrahydropyran] + CC(C)CC(C)(C)C
Details | refractive index
293.15 K, x1 = 0.0502 | 1.39259
293.15 K, x1 = 0.1 | 1.39359
293.15 K, x1 = 0.1499 | 1.39461
293.15 K, x1 = 0.2 | 1.39567
293.15 K, x1 = 0.25 | 1.39677
293.15 K, x1 = 0.3 | 1.39792
293.15 K, x1 = 0.35 | 1.39911
293.15 K, x1 = 0.4 | 1.40036
293.15 K, x1 = 0.4498 | 1.40167
293.15 K, x1 = 0.5001 | 1.40303
293.15 K, x1 = 0.5501 | 1.40446
293.15 K, x1 = 0.5999 | 1.40595
293.15 K, x1 = 0.6501 | 1.40753
293.15 K, x1 = 0.6999 | 1.40917
293.15 K, x1 = 0.75 | 1.41092
293.15 K, x1 = 0.8 | 1.41274
293.15 K, x1 = 0.8501 | 1.41468
293.15 K, x1 = 0.9 | 1.4167
293.15 K, x1 = 0.95 | 1.41885
293.15 K, x1 = 1 | 1.42109
303.15 K, x1 = 0.0502 | 1.38756
303.15 K, x1 = 0.1 | 1.38853
303.15 K, x1 = 0.1499 | 1.38953
303.15 K, x1 = 0.2 | 1.39057
303.15 K, x1 = 0.25 | 1.39166
303.15 K, x1 = 0.2999 | 1.39279
303.15 K, x1 = 0.3498 | 1.39399
303.15 K, x1 = 0.3998 | 1.39524
303.15 K, x1 = 0.4498 | 1.39654
303.15 K, x1 = 0.5001 | 1.3979
303.15 K, x1 = 0.5501 | 1.39932
303.15 K, x1 = 0.5999 | 1.40081
303.15 K, x1 = 0.6501 | 1.40239
303.15 K, x1 = 0.6999 | 1.40403
303.15 K, x1 = 0.75 | 1.40577
303.15 K, x1 = 0.8 | 1.4076
303.15 K, x1 = 0.8501 | 1.40954
303.15 K, x1 = 0.9 | 1.41158
303.15 K, x1 = 0.95 | 1.41373
303.15 K, x1 = 1 | 1.41599
313.15 K, x1 = 0.0501 | 1.38237
313.15 K, x1 = 0.1002 | 1.38334
313.15 K, x1 = 0.1501 | 1.38433
313.15 K, x1 = 0.1999 | 1.38537
313.15 K, x1 = 0.2501 | 1.38645
313.15 K, x1 = 0.3 | 1.38759
313.15 K, x1 = 0.3499 | 1.38877
313.15 K, x1 = 0.4002 | 1.39001
313.15 K, x1 = 0.4502 | 1.39131
313.15 K, x1 = 0.4999 | 1.39266
313.15 K, x1 = 0.5499 | 1.39409
313.15 K, x1 = 0.6 | 1.39559
313.15 K, x1 = 0.65 | 1.39716
313.15 K, x1 = 0.6998 | 1.39881
313.15 K, x1 = 0.75 | 1.40055
313.15 K, x1 = 0.8001 | 1.40239
313.15 K, x1 = 0.8501 | 1.40432
313.15 K, x1 = 0.9001 | 1.40638
313.15 K, x1 = 0.9498 | 1.40857
313.15 K, x1 = 1 | 1.41092
323.15 K, x1 = 0.0501 | 1.37719
323.15 K, x1 = 0.1002 | 1.37814
323.15 K, x1 = 0.1501 | 1.37913
323.15 K, x1 = 0.1999 | 1.38015
323.15 K, x1 = 0.2501 | 1.38122
323.15 K, x1 = 0.3 | 1.38233
323.15 K, x1 = 0.3499 | 1.38349
323.15 K, x1 = 0.4002 | 1.38471
323.15 K, x1 = 0.45 | 1.38599
323.15 K, x1 = 0.5002 | 1.38733
323.15 K, x1 = 0.55 | 1.38874
323.15 K, x1 = 0.5997 | 1.39022
323.15 K, x1 = 0.65 | 1.39179
323.15 K, x1 = 0.6998 | 1.39343
323.15 K, x1 = 0.75 | 1.39518
323.15 K, x1 = 0.8001 | 1.39701
323.15 K, x1 = 0.8501 | 1.39895
323.15 K, x1 = 0.9002 | 1.40101
323.15 K, x1 = 0.95 | 1.40319
323.15 K, x1 = 1 | 1.40554
